Results taken from the supplement of paper PMC10331698.
± gives the standard deviation of the averaged measurements.

Key:
Assay in all cases: level (log10 ratio to DMSO vehicle control); higher = higher biomarker level / cell amount than vehicle control
Conditions in all cases: in DMSO
[1] = compound: FC(F)(F)C(F)(F)C(F)(F)C(F)(F)C(F)(F)C(F)(F)C(F)(F)I [1-Iodopentadecafluoroheptane]
Method: (§1)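 BioMAP Diversity Plus panel of 12 human primary cell co-culture systems (3C, 4H, LPS, SAg, BT, BF4T, BE3C, CASM3C, HDF3CGF, KF3CT, MyoF, Mphg). Compounds were added 1 h before stimulation and left for 24 h (MyoF 48 h; BT 72 h for soluble read-outs or 6 d for IgG). Biomarkers were read by ELISA, cytotoxicity by SRB, PBMC viability and proliferation by Alamar Blue. Each well value was divided by the mean of 8 DMSO control wells on the same plate and log10 transformed; duplicate blinded samples were tested at 4 concentrations.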

[2] = compound: O=S(=O)(O)CCC(F)(F)C(F)(F)C(F)(F)C(F)(F)C(F)(F)C(F)(F)F [6:2 Fluorotelomer sulfonic acid]
Method: as §1

[3] = compound: NC(=O)C(F)(F)C(F)(F)C(F)(F)C(F)(F)C(N)=O [Octafluoroadipamide]
Method: as §1

[4] = compound: O=S(=O)(Cl)C(F)(F)C(F)(F)C(F)(F)C(F)(F)C(F)(F)C(F)(F)C(F)(F)C(F)(F)F [Perfluoro-1-octanesulfonyl chloride]
Method: as §1

[5] = compound: FC(F)(F)C(F)(F)C(F)(F)CI [Heptafluorobutyl iodide]
Method: as §1

[6] = compound: FC(F)(F)C(F)(F)C(F)(F)C(F)(F)C(F)(F)C(F)(F)CC1CO1 [3-(Perfluorohexyl)-1,2-epoxypropane]
Method: as §1

[7] = compound: O=S(=O)(F)C(F)(F)C(F)(F)C(F)(F)C(F)(F)C(F)(F)C(F)(F)C(F)(F)C(F)(F)F [Perfluorooctanesulfonyl fluoride]
Method: as §1

| Test System | level (log10) ([1]; 6700 nM) | level (log10) ([1]; 20000 nM) | level (log10) ([2]; 6700 nM) | level (log10) ([2]; 20000 nM) | level (log10) ([2]; 60000 nM) | level (log10) ([3]; 6700 nM) | level (log10) ([3]; 20000 nM) | level (log10) ([3]; 60000 nM) | level (log10) ([4]; 6700 nM) | level (log10) ([4]; 20000 nM) | level (log10) ([4]; 60000 nM) | level (log10) ([5]; 6700 nM) | level (log10) ([5]; 20000 nM) | level (log10) ([5]; 60000 nM) | level (log10) ([6]; 6700 nM) | level (log10) ([6]; 20000 nM) | level (log10) ([6]; 60000 nM) | level (log10) ([7]; 6700 nM) | level (log10) ([7]; 20000 nM) | level (log10) ([7]; 60000 nM) |
| --- | --- | --- | --- | --- | --- | --- | --- | --- | --- | --- | --- | --- | --- | --- | --- | --- | --- | --- | --- | --- |
| lMphg:CD62E/E-Selectin | 0.016 ± 0.014 | 0.0355 ± 0.0078 | -0.0225 ± 0.018 | -0.039 ± 0.0071 | 0 ± 0.023 | 0.0095 ± 0.00071 | 0.002 ± 0.0042 | 0.007 ± 0.016 | -0.0085 ± 0.0035 | -0.0165 ± 0.037 | 0.073 ± 0.014 | -0.0065 ± 0.011 | -0.0065 ± 0.005 | 0.0085 ± 0.019 | -0.0155 ± 0.00071 | 0.0055 ± 0.016 | -0.0045 ± 0.061 | -0.0175 ± 0.013 | -0.0205 ± 0.0035 | -0.028 ± 0.014 |
| MyoF:Collagen IV | 0.0705 ± 0.049 | 0.279 ± 0.09 | -0.0185 ± 0.033 | -0.006 ± 0.023 | -0.002 ± 0.014 | -0.0165 ± 0.015 | -0.0065 ± 0.0064 | 0.003 ± 0.038 | 0.014 ± 0.011 | 0.052 ± 0.023 | 0.241 ± 0.037 | -0.021 ± 0.0071 | -0.0325 ± 0.016 | -0.0185 ± 0.039 | 0.002 ± 0.025 | 0.0185 ± 0.0021 | 0.0425 ± 0.053 | 0.0015 ± 0.015 | 0.023 ± 0.025 | 0.0235 ± 0.018 |
| HDF3CGF:MMP-1 | -0.0105 ± 0.0021 | -0.0285 ± 0.018 | -0.015 ± 0.027 | -0.039 ± 0.03 | -0.036 ± 0.064 | 0.0035 ± 0.005 | 0.002 ± 0.011 | 0.0045 ± 0.012 | -0.0435 ± 0.019 | -0.017 ± 0.0099 | 0.016 ± 0.028 | -0.014 ± 0.028 | -0.0195 ± 0.021 | -0.0255 ± 0.025 | 0.0005 ± 0.0021 | 0.004 ± 0.0042 | 0.003 ± 0.0071 | 0.023 ± 0.03 | 0.029 ± 0.024 | 0.006 ± 0.051 |
